The values below come from PMC6503470, “Antibacterial Oligomeric Polyphenols from the Green Alga Cladophora socialis” (The Journal of Organic Chemistry, 2019).

For data set [1], the system named is wild type Candida albicans (WTCA, ATCC 32354). The data set is described as follows: Antifungal MIC assay, wild type C. albicans. The note with it: ATCC32354, MIC90, values expressed as 95% confidence interval, read-out: Minimal inhibitory concentration, WTCA. It counts as cell-based.
For data set [2], the system named is P. falciparum strain Dd2L. The data set is described as follows: Parasite proliferation assay, asexual blood-stage P. falciparum, SYBR Green. The class given is cell-based. Particulars: Plasmodium falciparum. The method, then: Antimalarial activity was assessed using a standard parasite proliferation assay with asexual blood-stage P. falciparum and SYBR Green detection.[22] Screening media (complete media supplemented with 0.05% Albumax II but without human serum) and fresh O^+ erythrocytes (TSRI Normal Blood Donation) were used for cultures of P. falciparum strain Dd2L (gift from Dr. David Fidock, Colombia University). A Labcyte ECHO acoustic liquid handler transferred compounds into assay plates. The plates were inoculated (Multi-Flo; BioTek, VT) with parasitized erythrocytes and fresh erythrocytes prepared in screening media, resulting in a final parasitemia of 0.3% and hematocrit of 2.5%. A chamber with a low oxygen gas mixture at 37 °C was used to culture the assay plates for 72 h with daily gas exchanges. SYBR Green lysis buffer was added to the wells after incubation using a Multi-Flo liquid dispenser, and plates were incubated at room temperature for an additional 24 h to achieve optimal development of the fluorescence signal which was read by an Envision Multimode Reader (PerkinElmer, MA). The positive controls used were atovaquone (EC50 = 0.0006 μM) and artemisinin (EC50 = 0.03 μM).

Data set [3] relates to vancomycin-resistant Enterococcus faecium (VREF, ATCC 700221). As to the kind of experiment: Antibacterial MIC assay, VREF. The class given is cell-based. Particulars: ATCC700221, MIC90, values expressed as 95% confidence interval, read-out: Minimal inhibitory concentration, VREF.
Data set [4] relates to Escherichia coli (EC, ATCC 25922). As to the kind of experiment: Antibacterial MIC assay, E. coli. It counts as cell-based.
The test system of data set [5] is amphotericin B-resistant C. albicans (ARCA, ATCC 90873). The data set is described as follows: Antifungal MIC assay, amphotericin B-resistant C. albicans. The note with it: Candida albicans, ATCC90873; MIC90; values expressed as 95% confidence interval; read-out: Minimal inhibitory concentration, ARCA. It counts as cell-based.
Data set [6] relates to methicillin-resistant Staphylococcus aureus (MRSA, ATCC 33591). The data set is described as follows: Antibacterial MIC assay, MRSA. The note with it: for MIC: Staphylococcus aureus, read-out: Minimal inhibitory concentration, MRSA. It counts as cell-based.
The nature of data set [7]: Antibacterial MIC assay, Gram-negative panel. It counts as cell-based, Gram-negative bacteria (panel). The note with it: one value for the whole panel of Gram-negative strains; read-out: Minimal inhibitory concentration, Gram–.
Data set [8] concerns human kidney cells (HEK293T). The data set is described as follows: Cytotoxicity, human kidney cells. The class given is cell-based. Particulars: at the compound's P. falciparum EC50; cell line not restated, HEK293T assumed.
The nature of data set [9]: Cytotoxicity, human kidney cells. It counts as cell-based. Particulars: human, HEK293T cells (human kidney cells); read-out: half maximal cytotoxicity concentration (CC50), HEK293T.
The subject of data set [10] is MDR Escherichia coli (MDREC, ATCC BAA-1743). As to the kind of experiment: microbe, parasite or virus in culture. Particulars: ATCCBAA1743, read-out: MIC, MDREC.
[11] abbreviates: positive controls, read-out: EC50, P. falciparum.
Setting [12] is: MIC90, at least 90% inhibition of growth, values expressed as 95% confidence interval.
The mark [13] stands for this setting: asexual blood stages, 72 h, 95% confidence interval, read-out: Half-maximal effective concentration, P. falciparum.
Where [14] appears, read: ATCC25922, Gram– column, footnote e: tested only against E. coli, read-out: Minimal inhibitory concentration, Gram– (tested only against E. coli).

Converted amounts (≈) assume the structure as drawn. Like-named read-outs stand apart in the source and are kept apart here.

In the case of `C[C@@H]1[C@H](O)[C@@H](C)/C=C/C=C/C=C/C=C/C=C/C=C/C=C/[C@H](O[C@@H]2O[C@H](C)[C@@H](O)[C@H](N)[C@@H]2O)C[C@@H]2O[C@](O)(C[C@@H](O)C[C@@H](O)[C@H](O)CC[C@@H](O)C[C@@H](O)CC(=O)O[C@H]1C)C[C@H](O)[C@H]2C(=O)O` [amphotericin B, reference compound], in [1], the MIC amounted to 16 ± 1 µg/mL (≈ 17.3 µM).
As to `C[C@@H]1CC[C@H]2[C@@H](C)C(=O)O[C@@H]3O[C@@]4(C)CC[C@@H]1[C@]32OO4` [artemisinin, reference compound], the EC50 in data set [2] (setting [11]) amounted to 30 nM.
The same measure, in the same setting: the result for `O=C1C(O)=C([C@H]2CC[C@H](c3ccc(Cl)cc3)CC2)C(=O)c2ccccc21` [atovaquone, reference compound] reads 0.6 nM.
`O=C(N[C@H](CO)[C@H](O)c1ccc([N+](=O)[O-])cc1)C(Cl)Cl` [chloramphenicol, reference compound]: the MIC in data set [3] is below 8 µg/mL; in data set [4] (ATCC25922, positive control, read-out: MIC, EC), below 8 µg/mL.
As for `Oc1ccc(-c2ccc(O)c(O)c2)cc1O` [compound 3, 3,4,3′,4′-tetrahydroxy-1,1′-biphenyl], the MIC in data set [5], in data set [6] (setting [12]), in [1], in data set [3] and in [7] was above 50 µg/mL throughout.
With `O=c1oc2cc(O)c(O)cc2c2cc(O)c(O)cc12` [compound 4, 2,3,8,9-tetrahydroxybenzo[c]chromen-6-one], the MIC in data set [5], in [6] (setting [12]), in data set [1], in data set [3] and in data set [7] was above 50 µg/mL throughout. The “toxicity at the P. falciparum EC50 values” in data set [8] is on record as “no toxicity”. In data set [9], the CC50 is 9.4 µg/mL (≈ 36.1 µM). For the same molecule, in data set [2] (setting [13]), the EC50 was found to be 0.7 ± 0.1 µg/mL.
For `O=c1oc2c(O)cc(Oc3ccc(-c4ccc(O)c(O)c4)cc3O)cc2c2c(O)c(O)ccc12` [compound 5, 4,9,10-trihydroxy-2-[(3,3′,4′-trihydroxy-(1,1′-biphenyl)-4-yl)oxy]benzo[c]chromen-6-one], the MIC in [5] is above 50 µg/mL; in data set [6] (setting [12]), 13 to 49 µg/mL (≈ 28.2 to 106 µM); in data set [1], above 50 µg/mL; in data set [3], above 50 µg/mL; in [7] it was above 50 µg/mL. In data set [6] (setting [12]), the “Minimal inhibitory concentration, MRSA” value was 13 ± 2 µg/mL (≈ 28.2 µM). Moreover, the “toxicity at the P. falciparum EC50 values” in [8] was “no toxicity”. In addition, the CC50 in data set [9] was found to be 4.5 µg/mL (≈ 9.77 µM). Besides, the EC50 in data set [2] (setting [13]) was 1.9 ± 0.2 µg/mL.
In the case of `Oc1ccc(Oc2ccc(Oc3ccc(Oc4ccc(Oc5ccc(Oc6ccc(Oc7ccc(Oc8ccc(-c9ccc(O)c(O)c9)cc8O)cc7O)cc6O)cc5O)cc4O)cc3O)cc2O)cc1O` [compound 6, α-hydro-ω-[3,4-dihydroxyphenyl]octa[oxy(2-hydroxyphen-4-yl)]], the MIC in data set [5] was 46 ± 9 µg/mL (≈ 47.2 µM); in data set [6] (setting [12]) it was 1.4 µg/mL (≈ 1.44 µM); in data set [1], 46 ± 13 µg/mL (≈ 47.2 µM); in [3] it was above 50 µg/mL; in [7], above 50 µg/mL. The “Minimal inhibitory concentration, MRSA” value in data set [6] (setting [12]) worked out at 1.4 ± 0.3 µg/mL (≈ 1.44 µM). The EC50 in data set [2] (setting [13]) was above 2 µg/mL.
Consider `Oc1ccc(Oc2ccc(Oc3ccc(Oc4ccc(Oc5ccc(Oc6ccc(Oc7ccc(Oc8ccc(Oc9ccc(-c%10ccc(O)c(O)c%10)cc9O)cc8O)cc7O)cc6O)cc5O)cc4O)cc3O)cc2O)cc1O` [compound 7, α-hydro-ω-[3,4-dihydroxyphenyl]nona[oxy(2-hydroxyphen-4-yl)]], for which the MIC in data set [5], in [1], in data set [3] and in data set [7] was above 50 µg/mL each time. For the same molecule, the EC50 in [2] (setting [13]) is above 2 µg/mL.
Regarding `O=c1oc2c(O)cc(Oc3ccc(Oc4ccc(Oc5ccc(Oc6ccc(Oc7ccc(Oc8ccc(Oc9ccc(Oc%10ccc(-c%11ccc(O)c(O)c%11)cc%10O)cc9O)cc8O)cc7O)cc6O)cc5O)cc4O)cc3O)cc2c2cc(O)c(O)cc12` [compound 8, α-[(4,8,9-trihydroxy-2-benzo[c]chromen-6-on-2-yl)oxy]-ω-[3,4-dihydroxyphenyl]octa[oxy(2-hydroxyphen-4-yl)]], the MIC in data set [5] is above 50 µg/mL; in data set [6] (setting [12]), 13 to 49 µg/mL (≈ 10.7 to 40.3 µM); in data set [1] it was above 50 µg/mL; in data set [3] it was above 50 µg/mL; in data set [4] (setting [14]), above 50 µg/mL. In addition, in data set [6] (setting [12]), the “Minimal inhibitory concentration, MRSA” value is 25 ± 3 µg/mL (≈ 20.5 µM). Besides, the EC50 in data set [2] (setting [13]) is above 2 µg/mL.
Take `O=c1oc2c(O)cc(Oc3ccc(Oc4ccc(Oc5ccc(Oc6ccc(Oc7ccc(Oc8ccc(Oc9ccc(-c%10ccc(O)c(O)c%10)cc9O)cc8O)cc7O)cc6O)cc5O)cc4O)cc3O)cc2c2cc(O)c(O)cc12` [compound 9, α-[(4,8,9-trihydroxy-2-benzo[c]chromen-6-on-2-yl)oxy]-ω-[3,4-dihydroxyphenyl]hepta[oxy(2-hydroxyphen-4-yl)]]: the MIC in [5] is above 50 µg/mL; in data set [6] (setting [12]), 13 to 49 µg/mL (≈ 11.7 to 44.2 µM); in data set [1], above 50 µg/mL; in [3], above 50 µg/mL; in data set [7], above 50 µg/mL. The “Minimal inhibitory concentration, MRSA” value in data set [6] (setting [12]) turned out to be 14 ± 3 µg/mL (≈ 12.6 µM). For the same molecule, the EC50 in [2] (setting [13]) is above 2 µg/mL.
As for `O=c1oc2c(O)cc(Oc3ccc(Oc4ccc(Oc5ccc(Oc6ccc(Oc7ccc(Oc8ccc(Oc9ccc(Oc%10ccc(Oc%11ccc(-c%12ccc(O)c(O)c%12)cc%11O)cc%10O)cc9O)cc8O)cc7O)cc6O)cc5O)cc4O)cc3O)cc2c2cc(O)c(O)cc12` [compound 10, α-[(4,8,9-trihydroxy-2-benzo[c]chromen-6-on-2-yl)oxy]-ω-[3,4-dihydroxyphenyl]nona[oxy(2-hydroxyphen-4-yl)]], the MIC in [5], in data set [1], in [3] and in data set [7] was above 50 µg/mL throughout. Also, the EC50 in [2] (setting [13]) was above 2 µg/mL.
In the case of `O=c1oc2c(O)cc(Oc3ccc(Oc4ccc(Oc5ccc(Oc6ccc(Oc7ccc(Oc8ccc(Oc9ccc(Oc%10ccc(Oc%11ccc(Oc%12ccc(-c%13ccc(O)c(O)c%13)cc%12O)cc%11O)cc%10O)cc9O)cc8O)cc7O)cc6O)cc5O)cc4O)cc3O)cc2c2cc(O)c(O)cc12` [compound 11, α-[(4,8,9-trihydroxy-2-benzo[c]chromen-6-on-2-yl)oxy]-ω-[3,4-dihydroxyphenyl]deca[oxy(2-hydroxyphen-4-yl)]], the MIC in data set [5], in data set [1], in data set [3] and in [7] was above 50 µg/mL in each case.
Take `O=c1oc2c(O)cc(Oc3ccc(Oc4ccc(Oc5ccc(Oc6ccc(Oc7ccc(Oc8ccc(Oc9ccc(Oc%10ccc(Oc%11ccc(Oc%12ccc(Oc%13ccc(-c%14ccc(O)c(O)c%14)cc%13O)cc%12O)cc%11O)cc%10O)cc9O)cc8O)cc7O)cc6O)cc5O)cc4O)cc3O)cc2c2cc(O)c(O)cc12` [compound 12, α-[(4,8,9-trihydroxy-2-benzo[c]chromen-6-on-2-yl)oxy]-ω-[3,4-dihydroxyphenyl]undeca[oxy(2-hydroxyphen-4-yl)]]: the MIC in data set [5], in data set [1], in data set [3] and in [4] (setting [14]) was above 50 µg/mL in each case.
On to `O=C1CN(/N=C/c2ccc([N+](=O)[O-])o2)C(=O)N1` [nitrofurantoin], for which the MIC in data set [10] turned out to be 14 ± 1 µg/mL (≈ 58.8 µM).
On to `CN[C@H](CC(C)C)C(=O)N[C@H]1C(=O)N[C@@H](CC(N)=O)C(=O)N[C@H]2C(=O)N[C@H]3C(=O)N[C@H](C(=O)N[C@H](C(=O)O)c4cc(O)cc(O)c4-c4cc3ccc4O)[C@H](O)c3ccc(c(Cl)c3)Oc3cc2cc(c3O[C@@H]2O[C@H](CO)[C@@H](O)[C@H](O)[C@H]2O[C@H]2C[C@](C)(N)[C@H](O)[C@H](C)O2)Oc2ccc(cc2Cl)[C@H]1O` [vancomycin, reference compound], for which, in data set [6], the MIC was below 4 µg/mL.
